# Test results: patent US20220177476A1, “Crystal Forms of (S)-4-(8-amino-3-(1-(but-2-ynoyl)-pyrrolidin-2-yl)imidazo[1,5-a]pyrazin-1-yl)-n-(pyridin-2-yl)benzamide” (Acerta Pharma B.V., priority 2015, published 2022)
# Read-outs that look alike come from different tables or passages of the source.
# Tests used:
# [1] = Relative stability of solid forms (water activity, suspension equilibration, storage); format: physicochemical; details: for Stability at Room Temperature: crystalline forms of the free base
# Description: Critical water activity is a measure of the relative thermodynamic stability of Form I in comparison to the trihydrate Form II. […] Suspension equilibration experiments in ethanol-water mixtures, each having a different water activity, affirmed this conclusion. Water activities included in the experiments were maintained at: about 0.35 (ethanol-water ratio of 95:5, PP502-P32), about 0.53 (ethanol-water ratio of 9:1, PP502-P33) and about 0.77 (ethanol-water ratio of 7:3, PP502-P34).
# Because the DVS results of Form II indicate reversible moisture sorption-desorption behavior (see above), tests were performed to confirm that storage of the dehydrated Form II sample (i.e., Form IV) at about 60% RH would again lead to the trihydrate form (Form II). […]
# [2] = Dynamic vapor sorption (DVS); format: physicochemical; details: for hygroscopicity according to the European Pharmacopoeia (EP) classification: weight increase at 80% RH; for water content at the end of the DVS test: by weight
# Method: A gravimetric vapor sorption study was run using a standard procedure. Samples were run using a dynamic vapor sorption (DVS) analyzer. Sample sizes were approximately 10 mg. A moisture adsorption-desorption isotherm was performed as outlined below.
# [3] = for Solubility (mg/mL) after 24 hours equilibration: pure water at 25° C., pH 3.6-4.1
# [4] = Bulk and tapped density of salts; format: physicochemical; details: 10 gram sample
# [5] = Aqueous solubility of salts after three hours equilibration without pH adjustment; format: physicochemical; details: water
# Method: Characterization of fumarate salt, maleate salt, phosphate salt and L-tartrate salt was conducted using ^1H NMR spectroscopy, TG-FTIR, DSC, dynamic vapor sorption, optical microscopy, high-performance liquid chromatography (HPLC) purity, laser diffraction, approximate bulk and tapped density, and aqueous solubility analytical techniques.
compound,measurement,setting,value
"CC#CC(=O)N1CCC[C@H]1c1nc(-c2ccc(C(=O)Nc3ccccn3)cc2)c2c(N)nccn12 [Form III, (S)-4-(8-amino-3-(1-(but-2-ynoyl)pyrrolidin-2-yl)imidazo[1,5-α]pyrazin-1-yl)-N-(pyridin-2-yl)benzamide]",Stability at Room Temperature,[1],metastable
same,maximum water content (saturation) at about 95% RH,[2]; DVS,about 8.5%
same,total weight gain observed between 0% RH and 80% RH,[2]; DVS,about 8%
same,hygroscopicity according to the European Pharmacopoeia (EP) classification,[2]; DVS,hygroscopic (hygroscopic: ≥2% and <15%)
"CC#CC(=O)N1CCC[C@H]1c1nc(-c2ccc(C(=O)Nc3ccccn3)cc2)c2c(N)nccn12 [Form IV, (S)-4-(8-amino-3-(1-(but-2-ynoyl)pyrrolidin-2-yl)imidazo[1,5-α]pyrazin-1-yl)-N-(pyridin-2-yl)benzamide]",Stability at Room Temperature,[1],metastable
same,form after storage at 60% RH for three days (PXRD),[1]; dehydrated Form II sample,does revert to Form II
"CC#CC(=O)N1CCC[C@H]1c1nc(-c2ccc(C(=O)Nc3ccccn3)cc2)c2c(N)nccn12 [Form V, (S)-4-(8-amino-3-(1-(but-2-ynoyl)pyrrolidin-2-yl)imidazo[1,5-α]pyrazin-1-yl)-N-(pyridin-2-yl)benzamide]",Stability at Room Temperature,[1],metastable
"CC#CC(=O)N1CCC[C@H]1c1nc(-c2ccc(C(=O)Nc3ccccn3)cc2)c2c(N)nccn12 [Form VI, (S)-4-(8-amino-3-(1-(but-2-ynoyl)pyrrolidin-2-yl)imidazo[1,5-α]pyrazin-1-yl)-N-(pyridin-2-yl)benzamide]",Stability at Room Temperature,[1],metastable
"CC#CC(=O)N1CCC[C@H]1c1nc(-c2ccc(C(=O)Nc3ccccn3)cc2)c2c(N)nccn12 [Form VII, (S)-4-(8-amino-3-(1-(but-2-ynoyl)pyrrolidin-2-yl)imidazo[1,5-α]pyrazin-1-yl)-N-(pyridin-2-yl)benzamide]",Stability at Room Temperature,[1],metastable
"CC#CC(=O)N1CCC[C@H]1c1nc(-c2ccc(C(=O)Nc3ccccn3)cc2)c2c(N)nccn12 [Form VIII, (S)-4-(8-amino-3-(1-(but-2-ynoyl)pyrrolidin-2-yl)imidazo[1,5-α]pyrazin-1-yl)-N-(pyridin-2-yl)benzamide]",Stability at Room Temperature,[1],metastable
"CC#CC(=O)N1CCC[C@H]1c1nc(-c2ccc(C(=O)Nc3ccccn3)cc2)c2c(N)nccn12.O=C(O)/C=C/C(=O)O [Fumarate, (S)-4-(8-amino-3-(1-(but-2-ynoyl)pyrrolidin-2-yl)imidazo[1,5-α]pyrazin-1-yl)-N-(pyridin-2-yl)benzamide fumarate]",Solubility (mg/mL) after 24 hours equilibration,[3],2.1 mg/mL
same,Bulk density,[4],0.45 g/mL
same,Tapped density,[4],0.57 g/mL
same,Behavior in DVS: Δm (20-80% RH),[2],~0.8% (20-80% RH)
same,maximum water content (saturation) at about 95% RH,[2]; DVS,approximately 6%
same,water content change between 20% and 80% RH,[2]; DVS,about 0.8%
same,Solubility (3 hours),[5],~1800 µg/mL
"CC#CC(=O)N1CCC[C@H]1c1nc(-c2ccc(C(=O)Nc3ccccn3)cc2)c2c(N)nccn12.O=C(O)C(O)C(O)C(=O)O [L-Tartrate, (S)-4-(8-amino-3-(1-(but-2-ynoyl)pyrrolidin-2-yl)imidazo[1,5-α]pyrazin-1-yl)-N-(pyridin-2-yl)benzamide L-tartrate]",Bulk density,[4],0.29 g/mL
same,Tapped density,[4],0.50 g/mL
same,Behavior in DVS: Δm (20-80% RH),[2],~0.7% (20-80% RH)
same,maximum water content (saturation) at about 95% RH,[2]; DVS,approximately 5.4%
same,water content at 50% RH,[2]; DVS,about 4.8%
same,water content change between 20% and 80% RH,[2]; DVS,about 0.7%
"CC#CC(=O)N1CCC[C@H]1c1nc(-c2ccc(C(=O)Nc3ccccn3)cc2)c2c(N)nccn12.O=C(O)/C=C\C(=O)O [Maleate, (S)-4-(8-amino-3-(1-(but-2-ynoyl)pyrrolidin-2-yl)imidazo[1,5-α]pyrazin-1-yl)-N-(pyridin-2-yl)benzamide maleate]",solubility,"[3]; 0.1 N HCl, Sigma #71763, pH after 24 hours 1.8",37000 µg/mL
same,solubility,"[3]; borate buffer (sample pH9), pH after 24 hours 4.7",1200 µg/mL
same,solubility,"[3]; buffer pH 5, pH after 24 hours 4.8",4300 µg/mL
same,solubility,"[3]; citrate buffer pH 3, pH after 24 hours 3.2",8000 µg/mL
same,solubility,"[3]; phosphate buffer pH 7, KH2PO4 (sample pH6.8), pH after 24 hours 4.8",1200 µg/mL
same,solubility,"[3]; phosphate buffer pH 7, KH2PO4 (sample pH7.4), pH after 24 hours 5.0",800 µg/mL
same,Solubility (mg/mL) after 24 hours equilibration,[3],2.3 mg/mL
same,Bulk density,[4],0.35 g/mL
same,Tapped density,[4],0.45 g/mL
same,Behavior in DVS: Δm (20-80% RH),[2],"fumarate, Δm~0.7%"
same,maximum water content (saturation) at about 95% RH,[2]; DVS,approximately 5.8%
same,water content change between 20% and 80% RH,[2]; DVS,about 0.5%
same,Solubility (3 hours),[5],2200 µg/mL
"CC#CC(=O)N1CCC[C@H]1c1nc(-c2ccc(C(=O)Nc3ccccn3)cc2)c2c(N)nccn12.O=P(O)(O)O [Phosphate, (S)-4-(8-amino-3-(1-(but-2-ynoyl)pyrrolidin-2-yl)imidazo[1,5-α]pyrazin-1-yl)-N-(pyridin-2-yl)benzamide phosphate]",Solubility (mg/mL) after 24 hours equilibration,[3],15.0 mg/mL
same,Bulk density,[4],0.33 g/mL
same,Tapped density,[4],0.48 g/mL
same,Behavior in DVS: Δm (20-80% RH),[2],~0.7% (20-80% RH)
same,maximum water content (saturation) at about 95% RH,[2]; DVS,approximately 6.6%
same,Solubility (3 hours),[5],9800 µg/mL
"CC#CC(=O)N1CCC[C@H]1c1nc(-c2ccc(C(=O)Nc3ccccn3)cc2)c2c(N)nccn12 [amorphous Formula (1), (S)-4-(8-amino-3-(1-(but-2-ynoyl)pyrrolidin-2-yl)imidazo[1,5-α]pyrazin-1-yl)-N-(pyridin-2-yl)benzamide]",total mass gained up to 95% RH,[2]; DVS,approximately 13%
same,total weight gain observed between 0% RH and 80% RH,[2]; DVS,about 6%
same,hygroscopicity according to the European Pharmacopoeia (EP) classification,[2]; DVS,hygroscopic (hygroscopic: ≥2% and <15%)
"CC#CC(=O)N1CCC[C@H]1c1nc(-c2ccc(C(=O)Nc3ccccn3)cc2)c2c(N)nccn12.O=C(O)CC(O)(CC(=O)O)C(=O)O [citrate salt, (S)-4-(8-amino-3-(1-(but-2-ynoyl)pyrrolidin-2-yl)imidazo[1,5-α]pyrazin-1-yl)-N-(pyridin-2-yl)benzamide citrate]",form after suspension equilibration in water,[1]; water at 25° C. for 24 hours,conversion to Form III of the free base of Formula (1)
same,water content at the end of the DVS test,[2]; DVS,about 7.5%
"CC#CC(=O)N1CCC[C@H]1c1nc(-c2ccc(C(=O)Nc3ccccn3)cc2)c2c(N)nccn12.O=C(O)c1cc(O)ccc1O [gentisate salt, (S)-4-(8-amino-3-(1-(but-2-ynoyl)pyrrolidin-2-yl)imidazo[1,5-α]pyrazin-1-yl)-N-(pyridin-2-yl)benzamide gentisate]",water content at the end of the DVS test,[2]; DVS,5.2%
"CC#CC(=O)N1CCC[C@H]1c1nc(-c2ccc(C(=O)Nc3ccccn3)cc2)c2c(N)nccn12.O=C(O)C(=O)O [oxalate salt, (S)-4-(8-amino-3-(1-(but-2-ynoyl)pyrrolidin-2-yl)imidazo[1,5-α]pyrazin-1-yl)-N-(pyridin-2-yl)benzamide oxalate]",maximum water content (saturation) at about 95% RH,[2]; DVS,about 6.5%
same,water content at 50% RH,[2]; DVS,about 5.5%
